“And” between values parts separate entries of the source, which are not always exact repeats. Equal entries are not always repeated. “Also recorded” adds a separate entry of the source. Peptide text beside a SMILES is read from it.
How the values were obtained:
[1] = Stability tests under extreme conditions (freezing 24 hours; heating at 100° C. for 10 minutes), HPLC; format: physicochemical
From the text: In the vertical axis the area of the HPLC peak is shown. […] Statistical significance data are also shown, the asterisks indicating: (*) P<0.05 vs Control (***) P<0.005 vs Control; (****) P<0.0001 vs Control.

pilocarpine model = assay: Pilocarpine model, oral pre-treatment (salivation, first signal, seizure, death/survival); format: in vivo, Mus musculus; set-up: time of occurrence of the first seizure: unit not given here
Description: In some examples, the neuromodulatory/neuroprotective/anticonvulsive effects of the composition of the invention have been evaluated in vivo by oral administration to animals. The pharmaceutical composition of the invention was administered to mammals (Mus musculus or mouse) with an oral dose of treatment with different embodiments of the compound of the invention, compared to other compounds or to saline control. In these experiments, the test compounds were administered orally 10 minutes prior to (intraperitoneal) administration of pilocarpine. Pilocarpine hydrochloride (320 mg/kg, Merck), dissolved in 0.9% sterile saline, was given intraperitoneally for induction of SE (status epileticus) (Turski et al., 1983). In the Turski model, the neurotoxic effects begin about 15-25 minutes after the injection of Pilo, with the occurrence of motor and limbic seizures, the animals evolving to a state of continuous (clonic) seizures that characterize SE Sanabria and Cavalheiro, 2000).
In this embodiment, the anticonvulsive effect of the composition of the invention prepared according to Example 2 was evaluated by prior administration of the inventive composition and subsequent administration of pilocarpine to animals. FIG. 4 presents the results of the pilocarpine model, indicating the time for the first salivation with the administration of control, cannabidiol (30 mg/kg), the compound of the invention R1-N-AA1-K-AA2-R2, in which embodiment is the tetrapeptide of SEQ ID No. 1 (500 μg/kg).
In this embodiment, the neuromodulatory effect of the composition of the invention prepared according to Example 2 was evaluated by prior administration of the inventive composition and subsequent administration of pilocarpine to animals. Other test compounds were also evaluated as described below. Administration of pilocarpine leads to severe brain injury, neurotoxicity and usually culminates in the death of the animals. This substance was used in the experiments described below but its harmful neuronal/encephalic effects were inhibited by the prior administration of the composition of the present invention: the vast majority of the animals subjected to these experiments had no symptoms related to brain lesions and survived without apparent damage, in contrast to groups of animals treated with other known substances.
The composition of the invention was prepared according to Example 2 with due concentration correction, for comparison of the effects of SEQ ID No. 1, SEQ ID No. 7 and NFK, such compounds having been previously administered to the animal groups.
In this embodiment, the anticonvulsant effect of different embodiments of the compound of the invention with the structure represented by SEQ ID No. 1, SEQ ID No. 7, NFK, FKF, FKL, as well as the NF, FK, KF and KL dipeptides were evaluated in the pilocarpine model.

CB1 receptor = assay: Screening with anti-CB1 antibodies sensitive to activation/conformational changes, ELISA on Striatum membranes; format: binding; details: ligands 1 μM; Assay 1-5
Description: Antibodies sensitive to CB1 receptor activation were generated and characterized by their specificities. For screening compounds, Striatum membranes (5 μg per well) were plated on NUNC-Immuno 96-well plates (Nalge-Nunc) and dried at room temperature. Membranes were washed with PBS (phosphate buffered saline) and incubated with or without different ligands (1 μM) and the extent of receptor recognition by the antibodies was measured by ELISA. The results of the tests are shown in Table 5, which indicates the % binding to the CB1 receptor in relation to control: […]

human CB1 receptor = target: T1, human CB1 receptor (Homo sapiens, UniProt P21554); assay: In vitro radioligand binding, [3H] CP 55940, recombinant CHO cells; details: radioligand agonist CP55940, read-out: % of inhibition of binding of specific control, Mean value
T1 construct: expressed in transfected cells; host or cells: CHO cells
T1 sequence (P21554 whole entry): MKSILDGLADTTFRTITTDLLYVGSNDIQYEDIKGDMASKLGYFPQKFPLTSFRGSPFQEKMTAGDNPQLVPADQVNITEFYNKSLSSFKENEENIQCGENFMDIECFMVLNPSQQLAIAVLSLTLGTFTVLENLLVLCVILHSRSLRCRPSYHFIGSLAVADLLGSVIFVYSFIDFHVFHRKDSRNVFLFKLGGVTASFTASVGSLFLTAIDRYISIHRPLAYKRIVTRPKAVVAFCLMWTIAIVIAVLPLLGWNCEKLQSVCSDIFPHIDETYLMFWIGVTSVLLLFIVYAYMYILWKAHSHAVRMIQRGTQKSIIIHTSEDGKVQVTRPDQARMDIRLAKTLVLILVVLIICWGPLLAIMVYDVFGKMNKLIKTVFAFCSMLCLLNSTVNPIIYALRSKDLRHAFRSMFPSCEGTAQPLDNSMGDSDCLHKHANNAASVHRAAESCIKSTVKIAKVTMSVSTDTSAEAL
Description: In vitro binding assays were performed using recombinant CHO cells expressing the human CB1 receptor and the [3H]
Results are expressed as the percentage of binding of the specific control according to formula: […]
And the percentual inhibition of binding of specific control obtained in the presence of the compound of the invention is:
IC50 values (concentration that causes half of maximal inhibition of specific control binding) and Hill (nH) coefficients were determined by nonlinear regression of the competition curves generated with the mean values of the replicates using the Hill equation:
Where Y=specific binding, A=asymptotic left of curve, D=asymptotic right of curve, C=compound concentration, C50=IC50 and nH=curve coefficient/slope factor. This analysis was performed using the Hill software validated by comparison with data generated by Sigmaplot 4.0 software. Inhibition constants (Ki) were calculated using the equation of Chen Prusoff:
Where L=concentration of the radioligand in the assay; KD=affinity of the radioligand for the receptor. A graph is used to determine the KD.

human CB2 receptor = target: T2, human CB2 receptor (Homo sapiens, UniProt P34972); assay: In vitro radioligand binding, [3H] WIN55212-2, recombinant CHO cells; set-up: % of inhibition of binding of specific control, 1st/2nd measurement: unit of the concentration uncertain; details: for % of inhibition of binding of specific control, 1st/2nd measurement: radioligand agonist WIN 55212-2
T2 construct: expressed in transfected cells; host or cells: CHO cells
T2 sequence (P34972 whole entry): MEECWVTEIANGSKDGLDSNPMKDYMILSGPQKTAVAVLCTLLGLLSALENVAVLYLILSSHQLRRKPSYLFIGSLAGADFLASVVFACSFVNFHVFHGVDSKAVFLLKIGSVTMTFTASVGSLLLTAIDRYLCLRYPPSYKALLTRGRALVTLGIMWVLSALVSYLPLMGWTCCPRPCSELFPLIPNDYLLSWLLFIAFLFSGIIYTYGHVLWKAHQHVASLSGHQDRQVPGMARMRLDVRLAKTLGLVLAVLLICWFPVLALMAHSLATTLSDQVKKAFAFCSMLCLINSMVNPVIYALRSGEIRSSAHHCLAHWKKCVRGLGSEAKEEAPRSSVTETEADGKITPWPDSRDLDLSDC
Description: In vitro binding assays were performed using recombinant CHO cells expressing human CB2 receptor and [3H]

pain threshold = assay: Pain threshold model, pressure apparatus on right paw; format: in vivo, rats; details: for pain threshold, force: oral, 0.5 to 0.25 mg/kg, individual animals
Description: The compounds of the present invention have also been tested as analgesics or neuropathic pain modulators. To that end, the compounds PVNFKF, PVNFK, VNFKF, SEQ ID No. 1 were tested in the pain threshold model. The pain threshold was measured using a pressure apparatus (Ugo Basile, Italy), essentially as described (Randall and Selitto, 1957). Briefly, a force of increasing magnitude (16 g/s) was applied to the back of the right paw of rats. When animals react by kicking, the force in grams required to induce this response is the threshold of pain. Antinoniceptive activity was expressed as the increase in pain threshold compared to control animals.
The compounds of the invention were administered orally to the animals at doses of 0.5 to 0.25 mg/kg and saline was used as a control.

[2] = tested on: experimental autoimmune encephalomyelitis (EAE); assay: EAE model of Multiple Sclerosis, MOG induction, Endopeptidase 24.15 knockout mice; format: in vivo; details: 24.15 knock out mice, FIG. 25
From the text: In this embodiment, transgenic mice knockout of the Endopeptidase 24.15 gene were challenged with MOG (Myelin Oligodendrocyte Glycoprotein), with administration of the compound of the invention SEQ ID No. 1 or saline as a control. After the introduction of the disease, a daily evaluation of the symptoms was made, according to Table 11 below.

[3] = FIG. 6, 500 μg/kg before pilocarpine

## NCCCCC(NC(=O)C(Cc1ccccc1)NC(=O)C(N)CC(N)=O)C(=O)NC(Cc1ccccc1)C(=O)O (stereo not shown) [SEQ ID No. 1] (H-NFKF-OH; configuration not given here)
[1]; control sample, n=2
  area of the HPLC peak, control: 120
[1]; freezing for 24 h
  area of the HPLC peak after freezing: 100
  part lost or degraded by freezing: 16.7%
[1]; heating at 100° C. for 10 minutes
  degradation upon heating (in words): did not suffer statistically significant degradation
Pilocarpine model; FIG. 4, cannabidiol 30 mg/kg, SEQ ID No. 1 500 μg/kg
  time for first salivation vs control (significance): does not present statistical significance
Pilocarpine model; [3]
  number of animals that died: two
  remaining animals alive for more than a week: 3 animals
Pilocarpine model; SEQ ID No. 1 500 μg/kg, cannabidiol 30 mg/kg
  prostration and nasal bleeding: no occurrence of prostration or nasal bleeding; also recorded: non-occurrence of prostration or nasal bleeding
Pilocarpine model; Table 1, oral, 10 minutes prior to pilocarpine 320 mg/kg i.p., individual animals
  time of occurrence of the first salivation: 3.2 min and 1.83 min and 1.97 min and 2.73 min and 1.58 min
Pilocarpine model; Table 2, oral, 10 minutes prior to pilocarpine 320 mg/kg i.p., individual animals
  time of occurrence of the first signal: 12.33 min and 8.43 min and 10.23 min and 13.53 min and 9.9 min
Pilocarpine model; Table 3, oral, 10 minutes prior to pilocarpine 320 mg/kg i.p., individual animals
  time of occurrence of the first seizure: 17.88 and 15.17 and 19.95 and 15.18 and 16
Pilocarpine model; Table 4, oral, 10 minutes prior to pilocarpine 320 mg/kg i.p., individual animals
  time of death occurrence: 18.92 min and 20 min and 15.18 min and 10.87 min
CB1 receptor
  % binding to the CB1 receptor in relation to control: 90.27% and 84.41% and 90.19% and 77.88% and 65.39%
Human CB1 receptor; 1 µM
  inhibition at 1 µM: -74.6%
Human CB1 receptor; 10 µM
  inhibition at 10 µM: -9.9%
Human CB2 receptor; 1 (unit uncertain)
  % of inhibition of binding of specific control, 1st/2nd measurement: 3.5% and 0.3%
Human CB2 receptor; 10 (unit uncertain)
  % of inhibition of binding of specific control, 1st/2nd measurement: 13.1%
Human CB2 receptor; conditions tested
  modulation in binding of the radioligand (in words): did not provide significant modulation
Pain threshold; After 3 h
  pain threshold, force: 80 grams (2×) and 70 grams (3×) and 75 grams
Pain threshold; Immediate
  pain threshold, force: 70 grams and 75 grams (3×) and 80 grams and 60 grams
Pain threshold; after 3 h
  greater pain threshold compared to PVNFKF: 50.1%
[2]
  clinical symptoms (Clinical Score): impressive reduction of clinical symptoms

Source: patent US20220098237A1, “COMPOUND, SYNTHESIS INTERMEDIATE, USE, PHARMACEUTICAL COMPOSITION AND NEUROMODULATORY THERAPEUTIC METHOD” (Remer Consultores Assessoria Empresarial Ltda, priority 2017, published 2022)
